Several values for one entry are separate records, joined by “and”; a condition that tells them apart may be missing. Equal values may be shown once. Entries after “also recorded” stand apart in the source; their conditions may differ. Read-outs that look alike come from different tables or passages of the source.
Assays:
Sitophilus oryzae [1] = experiment: Flour disk antifeedant bioassay with rice weevils (food consumption as % of control; EC50/EC90 for feeding reduction); type: in vivo; details: for food consumption in the rice weevil bioassay: RPC isolate; for food consumption, initial treatment: Table 20, saponin alone, 1.6 mg/200 mg of flour; for food consumption, peptide to saponin treatment ratio 1:9 / food consumption, peptide to saponin treatment ratio 1:1 / food consumption, peptide to saponin treatment ratio 9:1: peptide source AIEX YM3; for antifeedant activity (in words): rice weevil flour disk bioassay; for synergy with pea peptides (in words): single dose tests, pea peptide to saponin treatment ratios of 9:1, 1:1 and 1:9
Experimental: The bioactivity of separated fractions was determined primarily by a flour disk antifeedant bioassay with the rice weevil (Sitophilus oryzae), an insect pest of stored products.
A glass column (1.2 cm internal diameter×20.5 cm length) equipped with a solvent reservoir and stopcock was filled with silica gel (Mallinckrodt SilicAR cc-7) using a slurry of the silica gel in chloroform (Merck OmniSolv containing 1% ethanol). The top of the bed was protected with sea sand. C8 powder (130 mg) was applied to the column, after mixing with silica gel, as a 1.25 cm band. Using a slight positive air pressure to maintain reasonable flow rates, the column was eluted with chloroform (75 ml) then with 75 ml volumes of various mixtures of chloroform and methanol followed by pure methanol (Table 1). The column was eluted with more methanol (75 ml) and finally with two additional volumes of methanol (250 ml each). […] A final evaporation was performed with a Savant apparatus (43° C.). The tubes were re-weighed, capped and transferred to the bioassay laboratory. Each sample was dissolved in 70% ethanol (0.5 ml) and 0.2 ml of that solution was added to the wheat flour (200 mg) for preparation of the disks. […] Control disks were prepared with 0.2 ml of 70% ethanol.
A test insecticidal compound is incorporated into flour disks. […] A typical dose in many of the above examples is 1.6 milligram/200 milligram flour. Wheat flour is typically used.
(§1) Reduction in feeding activity elicited by the experimental samples was compared to food consumption of untreated controls, obtained by weighing the disks before and after exposure to insects and expressed as percent feeding relative to the control. Bioassay can also include insecticidal measurements (lethality with rice weevil).
(§2) Flour disks (ca. 0.1 g/disk) were weighed before and after exposure to the insects. […] Antifeedant activity was determined by expressing consumption of treated disks as a percentage of control disks (70% ethanol). Positive controls using the same C8 extract were run with each bioassay.
The estimate and confidence limits are the values of X where the line Y=Yo crosses the regression line and its upper and lower confidence curves, respectively. The formulae can be expressed in terms of outputs from the regression analysis. Let a and b be the estimates of the intercept and slope, MSE the mean square error, n the number of observations, t the (2-sided) critical value of t with n−2 degrees of freedom, V(b) the variance (standard error squared) of b and D=b^2−t^2V(b)). Then the estimate of X is Xo=(Yo−a)/b and the confidence limits for X are X0+t^2V(b)(Y0− Y)/bD±H where H^2=t^2└D·MSE/n+V(b)(Y0− Y)^2┘/D^2. The interval is not symmetric about Xo. […]

Sitophilus oryzae [2] = details: sample from a Japanese scientist; Bodnaryk et al., U.S. Pat. No. 5,955,082; cited from earlier work
Sitophilus oryzae [3] = type: in vivo; details: for mortality / toxicity to the rice weevil (in words): used alone
Experimental: as §1, §2
Probit analysis (Polo-PC, LeOra Software, Berkeley, Calif., U.S.A.) was used to estimate the concentrations required to kill 50 and 90% of the population after seven days. For the experiments that used a single dose, the mean survival time was estimated using Kaplan-Meier survival analysis (SigmaStat 3.0, SPSS Inc, Chicago, Ill., U.S.A.).

[4] = tested on: sugar taste receptor cells of the blowfly; details: Ahamed et al., 2000; cited from earlier work
[5] = Stability in solution or on storage judged by TLC, HPLC and mass spectrometry; type: physicochemical
Source text: Samples containing soyasaponin VI, freshly prepared in 80% ethanol, could be shown to contain intact soyasaponin VI by HPLC/MS with electrospray ionization, by the appearance of the strong quasimolecular ion at mass1069. However, the samples were always contaminated with soyasaponin I (quasimolecular ion at 943).
The peptide of mass 3788 was of particular interest because its molecular weight was the same as that of PA1b described by Higgins et al. (1986). During RPC, the 3788 peptide was found in highest concentrations in the end fractions from silica gel flash chromatography of C8 with chloroform-water-methanol and then methanol as eluent (system 1 isolate).

[6] = target: calcium-dependent potassium channels (Homo sapiens, UniProt Q12791); details: mammalian in vitro experiments (McManus et al.); cited from earlier work
Sequence of calcium-dependent potassium channels (Q12791 whole entry): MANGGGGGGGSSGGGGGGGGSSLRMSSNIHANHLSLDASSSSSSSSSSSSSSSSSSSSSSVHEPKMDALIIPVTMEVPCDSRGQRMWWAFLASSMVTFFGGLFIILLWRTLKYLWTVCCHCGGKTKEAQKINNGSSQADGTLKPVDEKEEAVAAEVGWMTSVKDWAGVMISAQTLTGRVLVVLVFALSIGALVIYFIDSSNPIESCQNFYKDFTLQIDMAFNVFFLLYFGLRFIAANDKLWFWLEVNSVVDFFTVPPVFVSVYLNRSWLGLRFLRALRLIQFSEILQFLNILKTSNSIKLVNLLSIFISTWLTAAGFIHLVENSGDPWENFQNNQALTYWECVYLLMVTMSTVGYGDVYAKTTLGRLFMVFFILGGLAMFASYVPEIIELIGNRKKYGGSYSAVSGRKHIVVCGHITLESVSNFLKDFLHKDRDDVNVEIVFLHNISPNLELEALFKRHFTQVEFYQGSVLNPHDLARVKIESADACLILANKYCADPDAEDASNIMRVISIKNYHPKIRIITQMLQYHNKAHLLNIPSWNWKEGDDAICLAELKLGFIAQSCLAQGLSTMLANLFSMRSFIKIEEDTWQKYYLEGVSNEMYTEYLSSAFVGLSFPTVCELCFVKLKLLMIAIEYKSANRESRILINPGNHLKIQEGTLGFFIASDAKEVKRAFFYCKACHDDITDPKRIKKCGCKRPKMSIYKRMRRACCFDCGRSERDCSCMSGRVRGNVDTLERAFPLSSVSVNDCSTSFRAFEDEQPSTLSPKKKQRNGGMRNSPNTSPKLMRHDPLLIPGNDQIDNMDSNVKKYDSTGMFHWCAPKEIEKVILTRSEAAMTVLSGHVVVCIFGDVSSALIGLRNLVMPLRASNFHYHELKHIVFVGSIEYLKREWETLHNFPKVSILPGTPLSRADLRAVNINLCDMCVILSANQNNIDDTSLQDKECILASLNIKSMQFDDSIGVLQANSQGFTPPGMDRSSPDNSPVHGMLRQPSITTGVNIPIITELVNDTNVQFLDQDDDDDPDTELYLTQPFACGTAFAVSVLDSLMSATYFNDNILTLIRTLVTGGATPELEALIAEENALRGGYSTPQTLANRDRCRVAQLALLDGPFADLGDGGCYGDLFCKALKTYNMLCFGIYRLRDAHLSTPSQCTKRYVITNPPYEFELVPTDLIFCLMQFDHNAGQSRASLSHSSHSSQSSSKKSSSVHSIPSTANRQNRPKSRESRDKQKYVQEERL
Sequence of calcium-dependent potassium channels (Q16558 whole entry partner): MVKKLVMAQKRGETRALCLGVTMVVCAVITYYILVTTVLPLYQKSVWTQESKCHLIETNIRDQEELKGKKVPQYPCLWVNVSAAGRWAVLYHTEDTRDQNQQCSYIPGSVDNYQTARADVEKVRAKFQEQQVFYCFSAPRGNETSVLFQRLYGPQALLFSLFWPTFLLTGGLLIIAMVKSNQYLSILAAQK

[7] = C8 material as peptide source, total dose 1.6 mg/200 mg of flour
[8] = C8 material as peptide source, total dose 1.6 mg/200 mg of flour (D-I: 0.8 mg/100 mg)
[9] = total dose 1.6 mg/200 mg of flour
[10] = total dose 1.6 mg/200 mg of flour (D-I: 0.8 mg/100 mg)
[11] = saponin:peptide ratio 1:0 (saponin or soap alone), concentration 0.8%
[12] = separate experiment, different batch of C8 material as peptide source, total dose 1.6 mg/200 mg of flour
[13] = saponin:peptide ratio 1:0, 0.8%, Kaplan-Meier
[14] = saponin:peptide ratio 1:0, 0.6% used in this test

Structure (SMILES): C[C@@H]1O[C@@H](O[C@H]2[C@H](O[C@H]3[C@H](O[C@H]4CC[C@@]5(C)[C@@H](CC[C@]6(C)[C@@H]5CC=C5[C@@H]7CC(C)(C)C[C@@H](O)[C@]7(C)CC[C@]56C)[C@@]4(C)CO)O[C@H](C(=O)O)[C@@H](O)[C@@H]3O)O[C@H](CO)[C@H](O)[C@@H]2O)[C@H](O)[C@H](O)[C@H]1O [Soyasaponin I, soyasaponin I]
- food consumption, peptide to saponin treatment ratio 1:1 (values in brackets) (Sitophilus oryzae [1]; [7]): (27) % of control
- food consumption, peptide to saponin treatment ratio 1:9 (values in brackets) (Sitophilus oryzae [1]; [7]): (26) % of control
- food consumption, peptide to saponin treatment ratio 9:1 (values in brackets) (Sitophilus oryzae [1]; [8]): (29) % of control
- food consumption in the rice weevil bioassay (Sitophilus oryzae [1]; 0.43 mg dose, disks from one-half the usual amount of flour (100 mg)): 100%
- food consumption (% of control) (Sitophilus oryzae [1]; Table 3, dose 1.6 mg/200 mg flour, listed as soyasaponin I (free acid)): 83 % of control and 114 % of control
- food consumption, initial treatment (Sitophilus oryzae [1]): 98 % of control
- feeding, % of the control (Sitophilus oryzae [1]; highest concentration tested, 12.8%): 75 % of the control
- food consumption, peptide to saponin treatment ratio 1:9 (Sitophilus oryzae [1]; [9]): 16 % of control
- food consumption, peptide to saponin treatment ratio 1:1 (Sitophilus oryzae [1]; [10]): 23 % of control
- food consumption, peptide to saponin treatment ratio 9:1 (Sitophilus oryzae [1]; [10]): 24 % of control
- antifeedant activity (in words) (Sitophilus oryzae [1]): inactive; also recorded: no significant reduction in feeding
- Feeding as a percent of control (%) (Sitophilus oryzae [1]; [11]): 92% and 98%
- EC90 (%) to reduce feeding by 90% (Sitophilus oryzae [1]; saponin:peptide ratio 1:0, three days on treated wafers): >>12 ^ %
- food consumption, peptide to saponin treatment ratio 1:1 (values in brackets) (Sitophilus oryzae [1]; [12]): (33)^7 % of control
- food consumption, peptide to saponin treatment ratio 1:9 (values in brackets) (Sitophilus oryzae [1]; [12]): (42)^7 % of control
- food consumption, peptide to saponin treatment ratio 9:1 (values in brackets) (Sitophilus oryzae [1]; [12]): (44)^7 % of control
- activity in the rice weevil bioassays (in words) (Sitophilus oryzae [2]): nearly inactive
- Mean survival time (days ± SE) (Sitophilus oryzae [3]; [13]): 13.8 a days
- LD90 (%) (Sitophilus oryzae [3]; saponin:peptide ratio 1:0, held three days on treated wafers, at 7 days): >>12 ^ %
- mortality / toxicity to the rice weevil (in words) (Sitophilus oryzae [3]): no mortality
- mortality / toxicity to the rice weevil (in words) (Sitophilus oryzae [3]; listed as soyasaponin I): no increase in mortality

Structure (SMILES): CC1=C(O)C(=O)C[C@H](O[C@@H]2CC(C)(C)C[C@H]3C4=CC[C@@H]5[C@@]6(C)CC[C@H](O[C@@H]7O[C@H](C(=O)O)[C@@H](O)[C@H](O)[C@H]7O[C@@H]7O[C@H](CO)[C@H](O)[C@H](O)[C@H]7O[C@@H]7O[C@@H](C)[C@H](O)[C@@H](O)[C@H]7O)[C@](C)(CO)[C@@H]6CC[C@@]5(C)[C@]4(C)CC[C@@]23C)O1 [Soyasaponin VI, soyasaponin VI]
- food consumption in the rice weevil bioassay (Sitophilus oryzae [1]; 0.8 mg dose, disks from one-half the usual amount of flour (100 mg)): 80%
- effect on sugar taste receptor cells (in words) [4]: stimulate the sugar taste receptor cells
- stability (in words) [5]: somewhat unstable in solution

Structure (SMILES): C[C@@H]1O[C@@H](O[C@H]2[C@H](O[C@H]3CC[C@@]4(C)[C@@H](CC[C@]5(C)[C@@H]4CC=C4[C@@H]6CC(C)(C)CC[C@]6(C(=O)O[C@@H]6O[C@H](CO[C@@H]7O[C@H](CO)[C@@H](O[C@@H]8O[C@@H](C)[C@H](O)[C@@H](O)[C@H]8O)[C@H](O)[C@H]7O)[C@@H](O)[C@H](O)[C@H]6O)CC[C@]45C)[C@]3(C)CO)OC[C@H](O)[C@@H]2O)[C@H](O)[C@H](O)[C@H]1O [Hederacoside C, hederacoside C]
- food consumption, initial treatment (Sitophilus oryzae [1]): 117 % of control
- food consumption, peptide to saponin treatment ratio 1:9 (Sitophilus oryzae [1]; [9]): 58 % of control
- food consumption, peptide to saponin treatment ratio 1:1 (Sitophilus oryzae [1]; [10]): 47 % of control
- food consumption, peptide to saponin treatment ratio 9:1 (Sitophilus oryzae [1]; [10]): 44 % of control
- antifeedant activity (in words) (Sitophilus oryzae [1]): inactive
- antifeedant activity (in words) (Sitophilus oryzae [1]; listed as hederacoside C): no significant reduction in feeding
- Feeding as a percent of control (%) (Sitophilus oryzae [1]; [11]): 117%
- synergy with pea peptides (in words) (Sitophilus oryzae [1]): clearly synergistic
- Mean survival time (days ± SE) (Sitophilus oryzae [3]; [13]): 13.9 a days

Structure (SMILES): C[C@@H]1O[C@@H](O[C@H]2[C@H](O[C@H]3[C@H](O[C@H]4CC[C@@]5(C)[C@@H](CC[C@]6(C)[C@@H]5CC=C5[C@@H]7CC(C)(C)CC(=O)[C@]7(C)CC[C@]56C)[C@@]4(C)CO)O[C@H](C(=O)O)[C@@H](O)[C@@H]3O)O[C@H](CO)[C@H](O)[C@@H]2O)[C@H](O)[C@H](O)[C@H]1O [Dehydrosoyasaponin I, dehydrosoyasaponin I]
- food consumption, peptide to saponin treatment ratio 9:1 (values in brackets) (Sitophilus oryzae [1]; [8]): (17) % of control
- food consumption in the rice weevil bioassay (Sitophilus oryzae [1]; […]100 mg of flour (equivalent to 1.28 mg/200 mg)): 65%
- food consumption, peptide to saponin treatment ratio 1:1 (Sitophilus oryzae [1]; [10]): 34 % of control
- food consumption, peptide to saponin treatment ratio 9:1 (Sitophilus oryzae [1]; [10]): 32 % of control
- Feeding as a percent of control (%) (Sitophilus oryzae [1]; [14]): 65%
- synergy with pea peptides (in words) (Sitophilus oryzae [1]): clearly synergistic
- action on calcium-dependent potassium channels (in words) [6]: high-affinity activator
- potency as a potassium channel opener relative to S-I [6]: 60 fold
- Mean survival time (days ± SE) (Sitophilus oryzae [3]; [14]): 13.8 ± 0.2 a days
